Literature values, collected in patent US20170360735A1, “INGESTIBLE EMULSION MATRIX FOR DELIVERY OF CREATINE” (DreamPak, priority 2016, published 2017).
Read-outs that look alike come from different tables or passages of the source.

Tests used:
[1] = ingestion of 20-30 g creatine per day for several days
[2] = oral, estimated

For “N-(aminoiminomethyl)-N-methylglycine [creatine]”, the “creatine dissolved in water” value (at 70° F.) is given as “about 1.4%”, the “creatine dissolved in water” value (at 120° F.) is given as “about 4.5%” and the “increase in human skeletal muscle creatine content” value [1] is given as “greater than 20%”. For the same substance, the “absorption rate from the gastrointestinal (GI) tract” value [2] was 1-14%.
